According to ChEMBL document CHEMBL1129655, “A comparative molecular field analysis study of N-benzylpiperidines as acetylcholinesterase inhibitors” (J Med Chem, 1996):

Molecular target: T1, Acetylcholinesterase (Mus musculus, UniProt P21836)
T1 sequence (P21836 whole entry): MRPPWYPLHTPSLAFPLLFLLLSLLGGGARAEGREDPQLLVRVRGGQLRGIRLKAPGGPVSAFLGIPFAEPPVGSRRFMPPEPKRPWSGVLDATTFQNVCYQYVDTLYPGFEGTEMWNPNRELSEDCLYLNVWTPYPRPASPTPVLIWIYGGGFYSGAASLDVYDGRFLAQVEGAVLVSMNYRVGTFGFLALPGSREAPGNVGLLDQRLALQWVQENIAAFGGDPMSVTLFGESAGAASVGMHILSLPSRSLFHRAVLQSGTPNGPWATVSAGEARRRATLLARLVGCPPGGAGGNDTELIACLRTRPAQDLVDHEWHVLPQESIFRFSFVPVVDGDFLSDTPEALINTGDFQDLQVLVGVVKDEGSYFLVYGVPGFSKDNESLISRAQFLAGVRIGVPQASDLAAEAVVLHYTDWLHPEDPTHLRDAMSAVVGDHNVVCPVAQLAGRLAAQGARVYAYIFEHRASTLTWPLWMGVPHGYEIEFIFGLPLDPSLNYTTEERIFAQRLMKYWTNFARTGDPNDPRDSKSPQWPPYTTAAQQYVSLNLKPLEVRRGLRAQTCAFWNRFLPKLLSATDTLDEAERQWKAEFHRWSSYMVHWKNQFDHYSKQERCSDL
Description: Inhibition against Acetylcholinesterase (AChE)

O=C(NCCC1CCN(CCc2ccccc2)CC1)c1ccccc1
IC50: 13 µM
